# Measured values taken from patent publication US6627441B1, “Increasing levels of growth regulator and/or water stress during embryo development” (priority 1998, dated 2003).
# How the values were obtained:
# [1] = tested on: Norway spruce somatic embryos; test: Norway spruce culture with raised ABA and PEG (Example 5); assay type: cell-based
# Method: Norway spruce was cultured using the same protocol as developed for white spruce. Thus, somatic embryos from full hormone suspension culture were transferred to hormone-free liquid culture medium (half-strength Litvay's medium, 3% sucrose) for one week, then transferred (0.75 mL of 20% suspension) to maturation medium in petri dishes.
# The first medium contained PEG adjusted to 290 mmol/kg and 20 μM ABA. After two weeks, the cultures were transferred on their filter paper supports to fresh medium of the same composition, or to medium containing PEG adjusted to 400 mmol/kg and 30 μM ABA. After a further two weeks (i e., the fourth week of culture), the somatic embryos were transferred either to PEG media at a water potential of 400 mmol/kg and 40 μM ABA, or to PEG medium of 540 mmol/kg and 40 μM ABA. Somatic embryos were also plated on medium containing 20 μM ABA and no PEG.
# [2] = tested on: white spruce somatic embryos; test: Effect of water stress and ABA on somatic embryo moisture contents (Example 4); assay type: cell-based
# Method: Water potentials were measured for liquid media containing various osmotica at a range of concentrations, which were plotted on a curve. Determinations were made using a vapour pressure osmometer (Wescor). Moisture content determinations were done using methods described previously by Attree et al. (U.S. Pat. No. 5,464,769).
# Embryos were cultured on medium containing 3% sucrose and ABA, with additional osmoticum adjusted to vary water potentials, as shown in Table 4.
# Embryos were cultured for six weeks and moisture contents determined. Determinations for each treatment were made weekly, with three replicates per treatment. 50 embryos per replicate were used. In some instances, particularly for the control with low osmoticum, insufficient embryos were produced. In these cases, the minimum number of embryos used per replicate was thirty. For weeks 0 to 2, the embryos were too small to be used for moisture content determinations, so whole tissue was used instead.
# [3] = tested on: Western larch somatic embryos; test: Western larch somatic embryogenesis (Example 10); assay type: cell-based, Western larch (Larix occidentalis Nutt.)
# Method: In order to test the effect of increased ABA and osmoticum, somatic embryos were first cultured on ½ LM full hormone proliferation medium, then transferred to hormone-free preculture medium with 3% sucrose for one week prior to plating 0.75 mL of a 20% (w/v) suspension culture onto filter paper supports overlaying solidified maturation medium. The somatic embryos were plated on PEG medium of 330 mmol/kg and 16 μM ABA, then transferred to 380 mmol/kg PEG medium, 24 ABA after 1 week, then transferred to 450 mmol/kg PEG medium, 32 μM ABA after the third week. These were then either desiccated at week 5 or were transferred to 540 mmol/kg PEG, 40 μM ABA for up to two more weeks before desiccating.
# [4] = tested on: white spruce somatic embryos; test: Germination and transfer to soil after increasing PEG/ABA culture (Example 8); assay type: cell-based
# Method: In another experiment, white spruce somatic embryos were transferred through the 1/20 hormone increasing PEG/ABA liquid maturation culture (Example 7, treatment 8), then plated onto 20-40 μM ABA, 290-540 mmol/kg PEG transfer schedule (Example 4, treatment 6) followed by desiccation at 4° C. 203 embryos were selected and germinated at 4-12° C. for 4 weeks and produced roots and shoots with needles at a frequency of 191/203=94%. White spruce somatic seedlings produced subsequently using these methods survived transfer to soil in a greenhouse and underwent continued growth at frequencies of 95-100%. However, prolonging maturation of cotyledonary embryos in the presence of high water stress and ABA was detrimental to germination. Thus, after seven to eight weeks of culture of spruce somatic embryos the germination vigour (seedling elongation) and frequencies decreased. Late stage water stress of mid to late cotyledonary stage embryos to below about 30-40% moisture content preferably should not be carried out in the presence of a replenishing source of ABA. This will presumably prevent build up of endogenous ABA, and allow endogenous ABA levels to naturally decline.
# [5] = treatment 3: PEG medium 290 mmol/kg with constant ABA 20 μM, six weeks
compound,measurement,setting,value
"CC1=CC(=O)CC(C)(C)[C@@]1(O)/C=C/C(C)=C\C(=O)O [ABA, abscisic acid]","appearance, precocious germination","[1]; 20 μM ABA, no PEG, after six weeks",green and elongated
same,"appearance, precocious germination","[1]; 290 mmol/kg PEG medium and 20 μM ABA, after six weeks",green and some had dark green tips to their cotyledons
same,"appearance, precocious germination","[1]; completed the 400 mmol/kg PEG, 40 μM ABA treatment, six weeks",yellow with a greenish tinge
same,"appearance, precocious germination","[1]; completed the 540 mmol/kg PEG, 40 μM ABA treatment, six weeks",small and white with no evidence of precocious germination
same,greening of embryos,"[2]; treatment 1: ABA 20 to 40 μM, 3% sucrose, 190 mmol/kg, after six weeks",evidence of greening
same,greening of embryos,[2]; [5],slight greening of cotyledons
same,moisture content of somatic embryos,[2]; [5],below 55%
same,moisture content of somatic embryos,"[2]; treatment 4: PEG medium 290 mmol/kg with increasing ABA 20, 30, 40 μM, compared with treatment 3",further slight reductions in moisture content
same,greening of embryos,"[2]; treatment 5: ABA to 40 μM, PEG medium to 400 mmol/kg",No greening
same,moisture content of somatic embryos,"[2]; treatment 5: ABA to 40 μM, PEG medium to 400 mmol/kg after week two, compared with treatment 4",a further reduction in moisture content
same,greening of embryos,"[2]; treatment 6: ABA to 40 μM, PEG medium to 540 mmol/kg",No greening
same,yield of mature somatic embryos,[2]; treatment 6: PEG water potential raised to 540 mmol/kg with ABA to 40 μM,300-350 mature somatic embryos per dish
same,moisture content of somatic embryos,"[2]; treatment 6: PEG water potential raised to 540 mmol/kg with ABA to 40 μM, end of six-week culture",~40%
same,production of mature embryos,[3]; ABA and a mild water stress of 3% sucrose,rarely produced mature embryos
same,plantlets after desiccation and germination,"[3]; PEG 330 to 450 or 540 mmol/kg with ABA 16 to 32 or 40 μM, desiccated and germinated",viable somatic plantlets with root and developing needles
same,precocious germination,"[3]; PEG 330 to 450 or 540 mmol/kg with ABA 16 to 32 or 40 μM, five to seven weeks of culture",inhibited from germinating precociously
same,frequency of roots and shoots with needles,"[4]; Example 7 treatment 8, then 20-40 μM ABA, 290-540 mmol/kg PEG schedule, desiccation at 4° C., germinated at 4-12° C. for 4 weeks",94%
same,survival of transfer to soil in a greenhouse with continued growth,[4]; somatic seedlings produced using increasing PEG/ABA methods,95-100%
